Entries after “also recorded” stand apart in the source; their conditions may differ.
Tests used:
[1] = mouse, in vivo; cited from earlier work
parent MCF-7 cell line = assay: Clonigenic tumor-cell killing assay, parent MCF-7 (14C-glucose, Bactec, day 9); assay type: cell-based; details: Homo sapiens, MCF7, 216 h
Description: (§1) The paired-ion doxorubicin:dermatan sulfate (essentially purified dermatan sulfate, 435 Type, Opocrin) of Example 28 (=doxorubicin:DS), is compared to standard doxorubicin liquid (Adria Laboratories), for tumor-cell killing potency in a clonigenic assay, using the following human breast cancer cell lines: parent MCF-7 cell line and adriamycin/doxorubicin-resistant MCF-7 cell line. For each group, five serial dilutions of each formulation were mixed on day 0, with an appropriate number of cells, growth medium and ^14 C-labelled glucose, the mixture then injected into serum vials pre-gassed with 5% CO2, and the vials incubated at 37° C. (with cells continuously exposed to drug). […] Results are shown in Table 5 for the day of peak counts (day 9): […]

[2] = system: adriamycin/doxorubicin-resistant MCF-7 cell line; assay: Clonigenic tumor-cell killing assay, doxorubicin-resistant MCF-7 (14C-glucose, Bactec, day 9); assay type: cell-based, human
Description: as §1

AT-1 prostate carcinomas = assay: Acute in vivo tumor localization and tumor-cell internalization by fluorescence microscopy; design: species or system Copenhagen rats
Protocol: FIG. 21A. Frozen 8-micron thick section of prostate adenocarcinoma (outer 2/3 of tumor of ca. 4 cm diameter), excised from its host rat (Copenhagen strain, syngeneic) 3 hours after intravenous injection of 5 mg/Kg doxorubicin:DS (doxorubicin in association with essentially purified dermatan sulfate, 435 Type, Opocrin) at a weight ratio of 60:40 (doxorubicin to dermatan sulfate), and fluorescence microscopy performed using a rhodamine-type filter to elicit direct fluorescence of the doxorubicin drug substance (see also Example 29). […] This is indicative of high tumor-cell internalization of the doxorubicin drug substance.
The paired-ion doxorubicin:dermatan sulfate (essentially purified dermatan sulfate, 435 Type, Opocrin) of Example 28 (=doxorubicin:DS) and standard doxorubicin liquid (Adria Laboratories) are injected at 5 mg/kg of doxorubicin i.v., into Copenhagen rats with AT-1 prostate carcinomas grown in a skin pouch (to mimic growth at deep organ sites). The rats are sacrificed at 3 hours after injection, the tumors and major organs removed, the cut tumors & organ pieces placed in OCT polymer and frozen at […], and cryostat sections cut at 8 um and coverslipped. Fluorescence microscopy is performed by exciting the sections using a rhodamine-type bandpass filter (at ca. 485 nm--in order to selectively excite doxorubicin) and assessing direct doxorubicin fluorescence (at an emission wavelength greater than 530 nm) to determine the following: […]

[3] = Acute in vivo toxicity of doxorubicin:dermatan sulfate vs standard doxorubicin (day of death); design: species or system male Balb/c mice; details: 22.5 mg/Kg i.v.
Description: The days of death are: doxorubicin:DS: modal day=6, mean=5.5±0.9 SE; standard doxorubicin: modal day=day 5, mean=4.8±0.5SE.

## COc1cccc2c1C(=O)c1c(O)c3c(c(O)c1C2=O)C[C@@](O)(C(=O)CO)C[C@@H]3O[C@H]1C[C@H](N)[C@H](O)[C@H](C)O1 [Standard doxorubicin]
[1]
  reported LD90 in mice: 22.5 mg/kg
Parent MCF-7 cell line
  IC50: 20 nM
  IC90: 60 nM
[2]
  ability to overcome resistance: unable to do so
[2]; Homo sapiens, MCF7, 216 h, day 9
  IC50: 22300 nM
[2]; day 9
  IC90: not achieved
AT-1 prostate carcinomas; 5 mg/Kg i.v., 3 hours
  direct drug fluorescence in tumor cells: markedly lower fluorescence
  fluorescence of endothelium / microvessels: general lack of fluorescence in and around the large tumor microvessel; also recorded: general lack of fluorescence in and around tumor microvessel (image center) and in tumor-cell nuclei
  fluorescence of tumor-cell nuclei: no identifiable fluorescence in the tumor-cell nuclei
AT-1 prostate carcinomas; 2/3 of regions
  Fluorescence near capillaries (scale of 0 to 4+): 0
AT-1 prostate carcinomas; Adriamycin PFS: most regions, doxorubicin:DS: ca. 8/10 of regions
  Fluorescence away from capillaries (scale of 0 to 4+): 0
AT-1 prostate carcinomas; rat, in vivo
  Endothelial fluorescence (scale of 0 to 4+): 0
  Endothelial nuclear fluorescence (scale of 0 to 4+): 0
[3]
  modal day of death: 5 days
[3]; ± SE
  mean day of death: 4.8 ± 0.5 days

Source: US6106866A, “In vivo agents comprising cationic drugs, peptides and metal chelators with acidic saccharides and glycosaminoglycans, giving improved site-selective localization, uptake mechanism, sensitivity and kinetic-spatial profiles, including tumor sites” (Access Pharmaceuticals, Inc., priority 1995, dated 2000)
